Test results taken from patent US20210261539A1, “COMPOUND HAVING BET INHIBITORY ACTIVITY AND PREPARATION METHOD AND USE THEREFOR” (Shanghai Haihe Pharmaceutical Co., Ltd., priority 2018, published 2021).
pIC50: −log10 of the molar value.

These molecules were tested against T1, BRD4 BD1 (Homo sapiens, UniProt O60885) (assay: HTRF in vitro enzyme activity assay, inhibition of BRD4 BD1 binding to acetylated H4 peptide). Conditions: IC50 values of the compounds against BRD4 BD1 binding; class symbols A/B/C.
T1 construct: Protein BRD4 BD1 used in the assay was purchased from Active Motif (cat. 31380); purchased Active Motif 31380
Description: Effect Examples: In Vitro Enzyme Activity Assay
Half inhibitory activity (IC50) of the compounds of the invention against the bromodomain protein BRD4 BD1 was determined in the present Examples.
The compounds of the invention were tested for inhibitory activity against BRD4 BD1 with Homogeneous Time-Resolved Fluorescence (HTRF).
2. Reagents, Consumable Materials and Instruments:
Protein BRD4 BD1 used in the assay was purchased from Active Motif (cat. 31380); streptavidin XL-665 (#610SAXLA) and EPIgeneous Binding Domain Kit A (#62BDAPEG) were both purchased from Cisbio Bioassays; [Lys(5,8,12,16)Ac] H4(1-21)-biotin (#64989), [Lys(5,8,12,16)Ac]H4(1-25) were available from Anaspec; OTX015 and ABBV-075 were purchased from Selleckchem Co. The 384-well ProxiPlate (#6008280) was purchased from Perkinelmer Co. The Laboratory microplate reader (Envision 2104) was available from PerkinElmer Co. The water used in the assay was Millipore-Q pure water.
3. Formulation of the Compound
10 mM DMSO stock solution of the test compound was diluted to 1 mM in DMSO, and then diluted 10-fold in Binding Domain dilution buffer (purchased from Cisbio Bioassays) for use (DMSO concentration in the final system was 0.1%), including 5 concentrations in 1:5 gradient.
4. Assay Protocol: 1 Batch, 2 Repeats
1) 5 μL of test compound was transferred to 45 μL Binding Domain dilution buffer.
2) 2 μL of 1× compound (4 μL Binding Domain dilution buffer: positive control; 6 μL enzyme buffer (purchased from Cisbio Bioassays): negative control) was transferred to a reaction plate.
3) 4 μL of 5×BRD 4(1) was added to the reaction plate (30 nM in the final system).
4) 4 μL of 5×[Lys(5,8,12,16)Ac] H4(1-21)-biotin was added to the reaction plate, and the plate was covered with a film and incubated at 37° C. for 30 min.
5) A detection mixture of SA-XL665 (2×) and anti-H3K9me0-Eu(K) (2×) was prepared in detection buffer (purchased from Cisbio Bioassays).
6) 10 μL of detection mixture (2×) was added to each well, incubated at RT for 3 h. The mp value was read by microplate reader Envision with the following parameters: […]
Molecule `C[C@@H]1C(=O)N(C)c2cnc(N3C(=O)c4cc(F)ccc4C3c3cccnc3)nc2N1C1CC1` (stereo partly drawn) [Example A95-P4, (7R)-8-cyclopropyl-2-(5-fluoro-3-oxo-1-(pyridin-3-yl)isoindolin-2-yl)-5,7 dimethyl-7,8-dihydropteridin-6(5H)-one] has a pIC50 of no less than 8.00.
`CC1C(=O)N(C)c2ccc(N3C(=O)CCC3c3ccc(F)cc3)nc2N1C1CC1` (single isomer, unassigned) [Example A22-P1, 4-cyclopropyl-6-(2-(4-fluorophenyl)-5-oxopyrrolidin-1-yl)-1,3-dimethyl-3,4-dihydropyrido[2,3-b]pyrazin-2(1H)-one] showed a pIC50 of 7.00 to 8.00.
Work on `Cc1ccc(C2c3ccccc3C(=O)N2c2ccc3c(n2)O[C@H](C)C(=O)N3C)cn1` (single isomer, unassigned) [Example A112-P1] yielded a pIC50 of no less than 8.00.
Molecule `COC(=O)c1cccc2c1C(=O)N(c1ccc3c(n1)N(C1CC1)C(C)C(=O)N3C)C2c1cccnc1` (single isomer, unassigned) [Example A84-P4, Methyl 2-(4-cyclopropyl-1,3-dimethyl-2-oxo-1,2,3,4-tetrahydropyrido[2,3-b]pyrazin-6-yl)-3-oxo-1-(pyridin-3-yl)isoindoline-4-carboxylate] has a pIC50 of no less than 8.00.
In the case of `C[C@H]1Oc2nc(N3C(=O)c4c(cccc4[S+](C)[O-])C3c3cccnc3)ccc2N(C)C1=O` (single isomer, unassigned) [Example A127-P1], the pIC50 was no less than 8.00.
In the case of `C[C@H]1Oc2nc(N3C(=O)c4ccccc4C3c3ccc(Cl)cc3)ccc2N(C)C1=O` (stereo partly drawn) [Example A40-P1, (3R)-6-(1-(4-chlorophenyl)-3-oxoisoindolin-2-yl)-1,3-dimethyl-1H-pyrido[2,3-B][1,4]oxazin-2(3H)-one], the pIC50 was no less than 8.00.
`CC1C(=O)N(C)c2cnc(N3C(=O)c4ccccc4C3c3ccccc3)nc2N1C1CC1` (single isomer, unassigned) [Example A92-P4, 8-cyclopropyl-5,7-dimethyl-2-(1-oxo-3-phenylisoindolin-2-yl)-7,8-dihydropteridin-6(5H)-one] gave a pIC50 of no less than 8.00.
Work on `CC1C(=O)N(C)c2c(F)cc(N3C(=O)c4ccccc4C3c3cccnc3)cc2N1C1CC1` (single isomer, unassigned) [Example A71-P4, 4-cyclopropyl-8-fluoro-1,3-dimethyl-6-(1-oxo-3-(pyridin-3-yl)isoindolin-2-yl)-3,4-dihydroquinoxalin-2(1H)-one] yielded a pIC50 of no less than 8.00.
With `CC1C(=O)N(C)c2cnc(N3C(=O)c4ccccc4C3c3ccc(F)nc3)nc2N1C1CC1` (stereo not shown) [A99-P3/P4, 8-cyclopropyl-2-(1-(6-fluoropyridin-3-yl)-3-oxoisoindol-2-yl)-5,7-dimethyl-7,8-dihydropteridin-6(5H)-one] the pIC50 was no less than 8.00.
`CC1C(=O)N(CF)c2ccc(N3C(=O)c4ccccc4C3c3cccnc3)nc2N1C1CC1` (stereo not shown) [Example A45-P4, 4-cyclopropyl-1-(fluoromethyl)-3-methyl-6-(1-oxo-3-(pyridin-3-yl)isoindolin-2-yl)-3,4-dihydropyrido [2,3-b]pyrazin-2(1H)-one] was tested, and the pIC50 was no less than 8.00.
In the case of `CCN1C(=O)[C@@H](C)Oc2nc(N3C(=O)c4ccccc4C3c3cccnc3)ccc21` (stereo partly drawn) [Example A108-P3, (R)-1-ethyl-3-methyl-6-(1-oxo-3-(pyridin-3-yl)isoindolin-2-yl)-1H-pyrido[2,3-B][1,4]oxazin-2(3H)-one], the pIC50 was 7.00 to 8.00.
`C[C@@H]1C(=O)N(C)c2cnc(N3C(=O)c4c(cccc4C(C)(C)O)C3c3ccc(F)cc3)nc2N1C` (single isomer, unassigned) [Example A96-P1] was tested, and the pIC50 was no less than 8.00.
`C[C@H]1Oc2nc(N3C(=O)c4ccccc4C3c3cccnc3)ccc2N(C)C1=O` (stereo partly drawn) [Example A33-P1, (R)-1,3-dimethyl-6-(1-oxo-3-(pyridin-3-yl)isoindolin-2-yl)-1H-pyrido[2,3-B][1,3]oxazin-2(3H)-one] gave a pIC50 of no less than 8.00.
Work on `C[C@H]1Oc2nc(N3C(=O)c4ccccc4C3c3ccc(F)nc3)ccc2N(C)C1=O` (single isomer, unassigned) [Example A111-P1] yielded a pIC50 of no less than 8.00.
Molecule `Cc1ccc(C2CCC(=O)N2c2ccc3c(n2)N(C2CC2)C(C)C(=O)N3C)cc1` (single isomer, unassigned) [Example A8-P3, 4-cyclopropyl-6-(2-(4-methylphenyl)-5-oxopyrrolidin-1-yl)-1,3-dimethyl-3,4-dihydropyrido[2,3-b]pyrazin-2(1H)-one] has a pIC50 of no less than 8.00.
`[2H]C([2H])([2H])N1C(=O)C(C)N(C2CC2)c2nc(N3C(=O)c4ccccc4C3c3cccnc3)ccc21` (stereo not shown) [Example A43-P4, 4-cyclopropyl-3-methyl-1-(trideuteromethyl)-6-(1-oxo-3-(pyridin-3-yl)isoindolin-2-yl)-3,4-dihydropyrido [2,3-B]pyrazin-2(1H)-one] gave a pIC50 of no less than 8.00.
`C[C@H]1Oc2nc(N3C(=O)c4c([S+](C)[O-])cccc4C3(O)c3cccnc3)ccc2N(C)C1=O` (single isomer, unassigned) [Example A129-P3] gave a pIC50 of 7.00 to 8.00.
`CC1C(=O)N(C)c2ccc(N3C(=O)c4cc(C(=O)N5CCN(C)CC5)ccc4C3c3ccc(F)cc3)nc2N1C1CC1` (single isomer, unassigned) [Example A78-P4, 4-cyclopropyl-6-(1-(4-fluorophenyl)-5-(4-methylpiperazine-1-carbonyl)-3-oxoisoindolin-2-yl)-1,3-dimethyl-3,4-dihydropyrido[2,3-b]pyrazin-2(1H)-one] gave a pIC50 of no less than 8.00.
Work on `CC1C(=O)N(C)c2ccc(N3C(=O)c4ccccc4C3c3cccnc3)nc2N1C1COC1` (stereo not shown) [Example A54-P4, 1,3-dimethyl-4-(oxetan-3-yl)-6-(1-oxo-3-(pyridin-3-yl)isoindolin-2-yl)-3,4-dihydropyrido [2,3-b]pyrazin-2(1H)-one] yielded a pIC50 of no less than 8.00.
`CC1C(=O)N(C)c2ccc(N3C(=O)c4ccccc4C3c3ccc(F)nc3)nc2N1C1CC1` (single isomer, unassigned) [Example A67-P3, 4-cyclopropyl-1,3-dimethyl-6-(1-oxo-3-(6-fluoropyridin-3-yl)isoindolin-2-yl)-3,4-dihydropyrido[3,2-b]pyrazin-2-(1H)-one] gave a pIC50 of no less than 8.00.
Molecule `C[C@@H]1C(=O)N(C)c2ccc(N3C(=O)c4c(C(=O)NC5CC5)cccc4C3c3ccccc3)nc2N1C` (stereo partly drawn) [Example A87-P4, N-cyclopropyl-3-oxo-1-phenyl-2-((R)-1,3,4-trimethyl-2-oxo-1,2,3,4-tetrahydropyrido[2,3-b]pyrazin-6-yl)isoindoline-4-carboxamide] has a pIC50 of no less than 8.00.
Work on `CC1Oc2nc(N3C(=O)c4ccccc4C3c3ccc(F)cc3)ccc2N(CC(F)(F)F)C1=O` (single isomer, unassigned) [Example A120-P1, 6-(1-(4-fluorophenyl)-3-oxoisoindol-2-yl)-3-methyl-1-(2,2,2-trifluoroethyl)-1H-pyrido[2,3-B][1,4]oxazin-2(3H)-one] yielded a pIC50 of 6.00 to 7.00.
`CC1C(=O)N(C)c2ccc(N3C(=O)c4c(cccc4S(C)(=O)=O)C3c3cccnc3)nc2N1C1CC1` (single isomer, unassigned) [Example A64-P3, 4-cyclopropyl-1,3-dimethyl-6-(4-(methanesulfonyl)-3-oxo-1-(pyridin-3-yl)isoindolin-2-yl)-3,4-dihydropyrido[2,3-b]pyrazin-2(1H)-one] gave a pIC50 of no less than 8.00.
`C[C@@H]1C(=O)N(C)c2ccc(N3C(=O)c4c(cccc4[S+](C)[O-])C3c3cccnc3)nc2N1C` (single isomer, unassigned) [Example A63-P4] gave a pIC50 of no less than 8.00.
In the case of `CC1C(=O)N(C)c2cnc(-n3c(=O)c4ccccc4n3-c3ccc(Cl)cc3)cc2N1C1CC1` (stereo not shown) [Example A29-P4, 7-(1-(4-chlorophenyl)-3-oxo-1H-indazol-2(3H)-yl)-1-cyclopropyl-2,4-dimethyl-1,2-dihydropyrido [3 4-b]pyrazin-3(4H)-one], the pIC50 was no less than 8.00.
In the case of `CC1C(=O)N(C)c2ccc(N3C(=O)c4c(C(=O)NC5CC5)cccc4C3c3ccc(F)cc3)nc2N1CC(F)(F)F` (stereo not shown) [Example A85-P4, N-cyclopropyl-2-(1,3-dimethyl-2-oxo-4-(2,2,2-trifluoroethyl)-1,2,3,4-tetrahydropyrido[2,3-b]pyrazin-6-fluorophenyl)-3-oxoisoindoline-4-carboxamide], the pIC50 was no less than 8.00.
`CC1C(=O)N(C)c2ccc(N3C(=O)c4ccccc4C3c3ccc(Cl)cc3)nc2N1CCO` (racemic) [Example A34, 6-(1-(4-chlorophenyl)-3-oxoisoindolin-2-yl)-4-(2-hydroxyethyl)-1,3-dimethyl-3,4-dihydropyrido [2,3-b]pyrazin-2(1H)-one] gave a pIC50 of no less than 8.00.
`C[C@H]1Oc2nc(N3C(=O)c4cc(F)ccc4C3c3cccnc3)c(F)cc2N(C)C1=O` (stereo partly drawn) [Example A118, (3R)-7-fluoro-6-(5-fluoro-3-oxo-1-(pyridin-3-yl)isoindolin-2-yl)-1,3-dimethyl-1H-pyrido[2,3-B][1,4]oxazin-2(3H)-one] was tested, and the pIC50 was 6.00 to 7.00.
